Read-outs that look alike come from different tables or passages of the source.
Columns and labels:
Format in all cases: physicochemical
[1] = Equivalent alkane carbon number (EACN) of co-oils
Description: (§1) Formulating microemulsions requires the combination of variables that will provide a middle phase microemulsion. Salager et al. (1979) proposed a semi empirical equation that relates the different formulation variables: Ln(S*)=k(EACN)+f(A)−σ+αTΔT Where S* is an optimum salinity, or electrolyte concentration; k is a constant, normally, between 0.1 to 0.17, and EACN is the equivalent alkane carbon number for nonlinear hydrocarbon (e.g. triglycerides). Although preferred salinity concentrations may exist, the inventors contemplate that salinity levels can and will vary. For example, a person of ordinary skill in the art will recognize that salinity levels may vary depending on the desired effects of a given product, protocol, or individual characteristics of a user of the product. For linear hydrocarbon, alkane carbon number (ACN) is applied. The EACN is estimated based on the optimum salinity obtained in the inventors' formulation studies. The higher the optimum salinity, the more the hydrophobicity or EACN of the oil. The effect of alcohol or additives is noted by f(A), σ is a function of the type of the surfactant, α is a constant, and T is the temperature of the system. However, in this study, alcohol is not included and the temperature of the system is constant.
The EACN of squalene is 24 and isopropyl myristate (IPM) is 13. The EACN for squalane is expected to be close to the value for squalene (˜24).

[2] = Fish diagram phase study: surfactant concentration (C) and sebum fraction in oil (F) where Type IV microemulsion forms; conditions: co-oil with artificial sebum, WOR=1
Method: Methods: Phase behavior studies were performed using equal volume of water and oil (or sebum/co-oil mixtures), giving a water/oil ratio (WOR) equal to one. Preliminary studies were conducted to determine preferred formulations and salinity. […] In another non-limiting aspect, a preferred salinity (S*) for this composition was 0.5% NaCl. As noted throughout this document and contemplated by the inventors, these concentrations can be varied. Additionally, the ingredients can also vary. For example, the surfactants, hydrophobic and hydrophilic linkers, co-oils, and hydrotropes that are discussed throughout this document and known to those of ordinary skill in the art can be used with the present invention. Stock solutions of AOT, hexylglucocide, and sorbitan monooleate at the selected weight ratio were prepared at different total surfactant/linker concentrations ranging from 14.19% to 56.06% wt. The phase studies were carried out in 16×125 mm flat-bottomed tubes; 2.5 mL surfactant solution was added, followed by the addition of co-oil, then sebum oil. The total volume of co-oil and sebum oil required is equivalent to the amount of water present in the 2.5 mL surfactant solution; this is to keep WOR equal to one. The fraction of sebum oil in the oil mixtures is varied from zero (100% vol. co-oil) to one (100% vol. sebum oil). The prepared samples were gently shaken once a day for 3 days and left to equilibrate at room temperature for 2 weeks. Phase diagrams (fish diagrams) were constructed by plotting the total surfactant/linker concentration as a function of the sebum fraction in oil. The microemulsion phase (Type I, II, III, and IV) were obtained by visual observation. The effect of salinity (0.5%, 1.5%, and 3% wt. NaCl) and co-oil on the phase behavior was investigated. The fish tail is observed in the high concentration regime whereas the fish body appears in the low concentration regime. A surfactant concentration 14.19% wt was studied. As discussed throughout this document, however, the surfactant concentration can be varied. At lower surfactant concentrations, slow phase separation kinetics made it difficult to map out the three phase region. The surfactant concentration and the sebum fraction of oil at which the body and tail of the fish meet are denoted by “C” and “F”, respectively. The concentration C for this system, approximately, is 25% wt. surfactant concentration at the fraction F of 0.4, as summarized in Table 4.

[3] = Optimum salinity (S*) of co-oil/sebum oil mixtures in phase behavior studies with the AOT/sorbitan monooleate/hexylglucocide system; conditions: NaCl
Method: Methods: Phase behavior studies were performed using equal volume of water and oil (or sebum/co-oil mixtures), giving a water/oil ratio (WOR) equal to one. Preliminary studies were conducted to determine preferred formulations and salinity. […] In another non-limiting aspect, a preferred salinity (S*) for this composition was 0.5% NaCl. As noted throughout this document and contemplated by the inventors, these concentrations can be varied. Additionally, the ingredients can also vary. For example, the surfactants, hydrophobic and hydrophilic linkers, co-oils, and hydrotropes that are discussed throughout this document and known to those of ordinary skill in the art can be used with the present invention.
Stock solutions of AOT, hexylglucocide, and sorbitan monooleate at the selected weight ratio were prepared at different total surfactant/linker concentrations ranging from 14.19% to 56.06% wt. The phase studies were carried out in 16×125 mm flat-bottomed tubes; 2.5 mL surfactant solution was added, followed by the addition of co-oil, then sebum oil. The total volume of co-oil and sebum oil required is equivalent to the amount of water present in the 2.5 mL surfactant solution; this is to keep WOR equal to one. The fraction of sebum oil in the oil mixtures is varied from zero (100% vol. co-oil) to one (100% vol. sebum oil). The prepared samples were gently shaken once a day for 3 days and left to equilibrate at room temperature for 2 weeks. Phase diagrams (fish diagrams) were constructed by plotting the total surfactant/linker concentration as a function of the sebum fraction in oil. The microemulsion phase (Type I, II, III, and IV) were obtained by visual observation. The effect of salinity (0.5%, 1.5%, and 3% wt. NaCl) and co-oil on the phase behavior was investigated.
as §1

[4] = oil mixture 20% co-oil / 80% sebum (vol.)
[5] = oil mixture 40% co-oil / 60% sebum
[6] = oil mixture 60% co-oil / 40% sebum
[7] = oil mixture 80% co-oil / 20% sebum

EACN [1]	Concentration (C) of surfactant at which Type IV microemulsion forms ([2]; [NaCl] 0.50%) [% wt.]	sebum fraction in oil (F) at which Type IV microemulsion forms ([2]; [NaCl] 0.50%)	sebum fraction in oil (F) at which Type IV microemulsion forms ([2]; [NaCl] 0.50%, listed as squalene)	Concentration (C) of surfactant at which Type IV microemulsion forms ([2]; [NaCl] 1.50%) [% wt.]	sebum fraction in oil (F) at which Type IV microemulsion forms ([2]; [NaCl] 1.50%)	Concentration (C) of surfactant at which Type IV microemulsion forms ([2]; [NaCl] 3.00%) [% wt.]	sebum fraction in oil (F) at which Type IV microemulsion forms ([2]; [NaCl] 3.00%)	EACN ([1]; listed as Ethyllaurate (EL))	SMILES	S* (optimum salinity) ([3]; 100% co-oil / 0% sebum)	S* (optimum salinity) [3, 4]	S* (optimum salinity) ([3]; oil mixture 20% co-oil / 80% sebum (vol.), listed as Isopropyl Myristate (IPM)) [%]	S* (optimum salinity) [3, 5] [%]	S* (optimum salinity) [3, 6] [%]	S* (optimum salinity) [3, 7]
24	~25	0.45	0.4	–	–	–	–	–	CC(C)=CCC/C(C)=C/CC/C(C)=C/CC/C=C(\C)CC/C=C(\C)CCC=C(C)C [Squalene]	–	–	–	–	–	–
–	25	0.35	–	35	0.2	42	0.15	–	CC(C)CCCC(C)CCCC(C)CCCCC(C)CCCC(C)CCCC(C)C (centres unmarked) [Squalane, 2,6,10,15,19,23-Hexamethyltetracosane]	–	–	–	–	–	–
13	25	0.5	–	38	0.175	–	–	–	CCCCCCCCCCCCCC(=O)OC(C)C [IPM, isopropyl myristate]	3.5%	less than 0.5%	<0.5	0.5	0.8	1.5%
< 13	25	0.4	–	38	0.02	–	–	<13	CCCCCCCCCCCC(=O)OCC [EL, ethyl laurate]	1-1.5%	<0.5%	–	<0.5	<0.5	0.5-0.7%

Source: US20060165739A1, “Alcohol-free microemulsion composition” (Mary Kay Inc., priority 2005, published 2006)
